Laboratory results reported in ChEMBL document CHEMBL5154935, “Design, Synthesis, and Biological Evaluation of Novel Evodiamine Derivatives as Potential Antihepatocellular Carcinoma Agents” (J Med Chem, 2022).

What was measured:
[1] = target: DNA topoisomerase 2-alpha (Homo sapiens) (UniProt P11388); experiment: Inhibition of human Top2-alpha expressed in baculovirus assessed as inhibition of relaxation of supercoiled pBR322 plasmid DNA at 100 uM incubated for 30 mins in presence of ATP by ethidium bromide staining based agarose gel electrophoresis analysis relative to control
SK-HEP1 = experiment: Antiproliferative activity against human SK-HEP1 cells treated for 72 hrs by MTT assay; type: functional, cell-based; details: SK-HEP1, 72 h
Huh-7 = experiment: Antiproliferative activity against human Huh-7 cells treated for 72 hrs by MTT assay; type: functional, cell-based; details: Huh-7, 72 h
HCCLM9 = experiment: Antiproliferative activity against human HCCLM9 cells treated for 72 hrs by MTT assay; type: functional, cell-based; details: HCCLM9, 72 h
SMMC-7721 = experiment: Antiproliferative activity against human SMMC-7721 cells treated for 72 hrs by MTT assay; type: functional, cell-based; details: SMMC-7721, 72 h
HepG2 = experiment: Antiproliferative activity against human HepG2 cells treated for 72 hrs by MTT assay; type: functional, cell-based; details: HepG2, 72 h
[2] = Antiproliferative activity against human L02 cells treated for 72 hrs by MTT assay; type: toxicity, cell-based
[3] = target: T1, DNA topoisomerase 1 (Homo sapiens) (UniProt P11387); experiment: Inhibition of Top1 (unknown origin) assessed as inhibition of relaxation of supercoiled pBR322 plasmid DNA at 12.5 uM incubated for 25 mins by ethidium bromide staining based agarose gel electrophoresis analysis relative to control
T1 sequence (whole entry): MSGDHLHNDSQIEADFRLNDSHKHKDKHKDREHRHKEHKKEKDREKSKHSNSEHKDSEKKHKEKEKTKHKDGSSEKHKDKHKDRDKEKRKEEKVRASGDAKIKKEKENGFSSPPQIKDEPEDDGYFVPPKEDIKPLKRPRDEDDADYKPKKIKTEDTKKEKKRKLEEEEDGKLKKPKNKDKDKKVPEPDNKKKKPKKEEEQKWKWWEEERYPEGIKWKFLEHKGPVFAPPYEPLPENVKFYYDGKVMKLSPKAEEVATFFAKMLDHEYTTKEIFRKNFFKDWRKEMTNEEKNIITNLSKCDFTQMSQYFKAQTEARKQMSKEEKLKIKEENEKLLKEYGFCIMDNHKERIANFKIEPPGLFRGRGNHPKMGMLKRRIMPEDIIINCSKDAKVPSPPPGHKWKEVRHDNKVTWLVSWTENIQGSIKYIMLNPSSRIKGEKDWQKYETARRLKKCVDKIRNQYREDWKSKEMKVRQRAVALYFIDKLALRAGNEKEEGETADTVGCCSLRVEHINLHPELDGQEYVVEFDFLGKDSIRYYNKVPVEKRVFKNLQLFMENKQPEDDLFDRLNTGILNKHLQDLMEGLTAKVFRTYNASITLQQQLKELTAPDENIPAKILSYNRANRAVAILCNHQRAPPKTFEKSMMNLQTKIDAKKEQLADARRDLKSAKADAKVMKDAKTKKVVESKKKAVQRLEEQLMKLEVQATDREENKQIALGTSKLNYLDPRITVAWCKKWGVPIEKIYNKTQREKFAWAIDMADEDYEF

[4] = target: T1, DNA topoisomerase 1 (Homo sapiens); experiment: Inhibition of Top1 (unknown origin) assessed as inhibition of relaxation of supercoiled pBR322 plasmid DNA at 50 uM incubated for 25 mins by ethidium bromide staining based agarose gel electrophoresis analysis relative to control

Sequence of DNA topoisomerase 2-alpha (Homo sapiens) (P11388 whole entry): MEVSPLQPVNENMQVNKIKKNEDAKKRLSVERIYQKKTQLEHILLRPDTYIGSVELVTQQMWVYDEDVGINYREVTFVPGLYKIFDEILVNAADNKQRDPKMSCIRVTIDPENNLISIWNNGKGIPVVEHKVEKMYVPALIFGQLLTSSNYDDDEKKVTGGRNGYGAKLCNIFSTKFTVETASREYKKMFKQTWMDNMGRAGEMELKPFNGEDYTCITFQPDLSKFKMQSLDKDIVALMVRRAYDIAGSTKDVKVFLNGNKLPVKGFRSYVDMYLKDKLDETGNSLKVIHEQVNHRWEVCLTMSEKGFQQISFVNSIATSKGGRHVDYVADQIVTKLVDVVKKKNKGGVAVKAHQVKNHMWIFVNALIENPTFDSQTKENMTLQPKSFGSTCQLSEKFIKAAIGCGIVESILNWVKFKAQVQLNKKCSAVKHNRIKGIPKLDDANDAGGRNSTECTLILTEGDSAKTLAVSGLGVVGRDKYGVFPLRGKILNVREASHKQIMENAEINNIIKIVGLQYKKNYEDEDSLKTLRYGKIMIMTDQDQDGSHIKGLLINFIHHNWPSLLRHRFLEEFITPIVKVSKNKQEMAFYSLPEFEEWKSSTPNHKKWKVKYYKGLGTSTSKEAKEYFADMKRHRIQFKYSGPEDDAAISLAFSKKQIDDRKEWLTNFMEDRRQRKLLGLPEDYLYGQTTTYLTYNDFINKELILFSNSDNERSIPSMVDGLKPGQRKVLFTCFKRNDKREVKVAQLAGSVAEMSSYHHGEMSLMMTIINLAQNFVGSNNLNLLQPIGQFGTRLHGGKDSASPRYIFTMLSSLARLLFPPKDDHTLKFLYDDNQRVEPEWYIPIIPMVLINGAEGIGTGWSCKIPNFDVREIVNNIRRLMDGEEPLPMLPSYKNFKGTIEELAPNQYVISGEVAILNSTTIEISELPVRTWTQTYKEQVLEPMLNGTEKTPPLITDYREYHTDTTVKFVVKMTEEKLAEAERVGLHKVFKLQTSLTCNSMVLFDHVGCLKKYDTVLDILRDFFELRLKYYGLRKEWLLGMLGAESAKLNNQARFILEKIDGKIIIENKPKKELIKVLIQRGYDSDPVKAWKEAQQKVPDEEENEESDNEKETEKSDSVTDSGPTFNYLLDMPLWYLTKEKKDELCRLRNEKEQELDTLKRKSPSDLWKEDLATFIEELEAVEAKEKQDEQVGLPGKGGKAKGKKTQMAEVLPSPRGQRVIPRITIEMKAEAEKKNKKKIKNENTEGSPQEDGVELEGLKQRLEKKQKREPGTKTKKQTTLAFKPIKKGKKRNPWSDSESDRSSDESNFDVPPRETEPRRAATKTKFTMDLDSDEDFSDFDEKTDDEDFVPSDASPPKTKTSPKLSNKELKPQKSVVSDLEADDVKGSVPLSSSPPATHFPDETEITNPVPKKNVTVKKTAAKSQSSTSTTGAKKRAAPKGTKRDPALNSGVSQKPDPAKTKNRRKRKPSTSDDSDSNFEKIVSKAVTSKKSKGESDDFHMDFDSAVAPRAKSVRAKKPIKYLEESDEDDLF

CC[C@@]1(O)C(=O)OCc2c1cc1n(c2=O)Cc2cc3ccccc3nc2-1
inhibition [1]: 70.2%

COc1ccc2[nH]c3c(c2c1)CCN1C(=O)c2cc(F)ccc2N(c2cc(F)ccc2Br)C31 (stereo unspecified)
IC50 (SK-HEP1): 14.7 µM | IC50 (Huh-7): 11.4 µM | IC50 (HCCLM9): > 18 µM | IC50 (SMMC-7721): 13 µM | IC50 (HepG2): 13.1 µM | IC50 at 72 h [2]: > 6 µM

COc1ccc2[nH]c3c(c2c1)CCN1C(=O)c2cc(F)ccc2N(c2cc(F)ccc2Cl)C31 (stereo unspecified)
IC50 (SK-HEP1): 16.5 µM | IC50 (Huh-7): 11.5 µM | IC50 (HCCLM9): > 18 µM | IC50 (SMMC-7721): 10.9 µM | IC50 (HepG2): 8.71 µM | IC50 at 72 h [2]: > 6 µM

COc1ccc2[nH]c3c(c2c1)CCN1C(=O)c2cc(F)ccc2N(c2ccc(Br)c(F)c2)C31 (stereo unspecified)
IC50 (SK-HEP1): > 18 µM | IC50 (Huh-7): > 18 µM | IC50 (HCCLM9): > 18 µM | IC50 (SMMC-7721): > 18 µM | IC50 (HepG2): 15.9 µM | IC50 at 72 h [2]: > 6 µM

COc1ccc2[nH]c3c(c2c1)CCN1C(=O)c2cc(F)ccc2N(c2ccc(Cl)c(F)c2)C31 (stereo unspecified)
IC50 (SK-HEP1): 8.9 µM | IC50 (Huh-7): 7.68 µM | IC50 (HCCLM9): 6.9 µM | IC50 (SMMC-7721): 6.92 µM | IC50 (HepG2): 6.44 µM | IC50 at 72 h [2]: 2.69 µM

COc1ccc2[nH]c3c(c2c1)CCN1C(=O)c2cc(F)ccc2N(c2ccc(OC)c(F)c2)C31 (stereo unspecified)
IC50 (SK-HEP1): 4.55 µM | IC50 (Huh-7): 4.32 µM | IC50 (HCCLM9): 6.04 µM | IC50 (SMMC-7721): 4.38 µM | IC50 (HepG2): 4.67 µM | IC50 at 72 h [2]: > 6 µM

COc1ccc2[nH]c3c(c2c1)CCN1C(=O)c2cc(F)c(F)cc2N(c2cccc(F)c2)C31 (stereo unspecified)
IC50 (SK-HEP1): 7.21 µM | IC50 (Huh-7): 7.69 µM | IC50 (HCCLM9): 10.8 µM | IC50 (SMMC-7721): 7.14 µM | IC50 (HepG2): 6.98 µM | IC50 at 72 h [2]: > 6 µM

CCOc1ccc2[nH]c3c(c2c1)CCN1C(=O)c2cc(F)cc(F)c2N(c2cccc(F)c2)C31 (stereo unspecified)
inhibition [3]: 50.8% | IC50 (SK-HEP1): 1.34 µM | IC50 (Huh-7): 0.6 µM | IC50 (HCCLM9): 0.89 µM | inhibition [1]: 48.3% | IC50 (SMMC-7721): 0.92 µM | IC50 (HepG2): 0.85 µM | IC50 at 72 h [2]: 1.8 µM | inhibition [4]: 66.7%

COc1ccc2[nH]c3c(c2c1)CCN1C(=O)c2cc(F)ccc2N(c2cc(C)cc(F)c2)C31 (stereo unspecified)
IC50 (SK-HEP1): 7.3 µM | IC50 (Huh-7): 6.99 µM | IC50 (HCCLM9): 12 µM | IC50 (SMMC-7721): 8.15 µM | IC50 (HepG2): 7.3 µM | IC50 at 72 h [2]: > 6 µM

Cc1ccc2[nH]c3c(c2c1)CCN1C(=O)c2cc(F)cc(F)c2N(c2cccc(F)c2)C31 (stereo unspecified)
inhibition [3]: 7.29% | IC50 (SK-HEP1): 0.48 µM | IC50 (Huh-7): 0.02 µM | IC50 (HCCLM9): 0.31 µM | inhibition [1]: 67.6% | IC50 (SMMC-7721): 0.49 µM | IC50 (HepG2): 0.51 µM | IC50 at 72 h [2]: 1.4 µM | inhibition [4]: 83.7%

COc1ccc2[nH]c3c(c2c1)CCN1C(=O)c2cc(F)ccc2N(c2ccc(C)c(F)c2)C31 (stereo unspecified)
IC50 (SK-HEP1): 6.96 µM | IC50 (Huh-7): 6.34 µM | IC50 (HCCLM9): 6.62 µM | IC50 (SMMC-7721): 5.9 µM | IC50 (HepG2): 4.62 µM | IC50 at 72 h [2]: > 6 µM

O=C1c2cc(F)cc(F)c2N(c2cccc(F)c2)C2c3[nH]c4ccc(Cl)cc4c3CCN12 (stereo unspecified)
inhibition [3]: 75.4% | IC50 (SK-HEP1): 0.11 µM | IC50 (Huh-7): 0.29 µM | IC50 (HCCLM9): 0.14 µM | inhibition [1]: 65.2% | IC50 (SMMC-7721): 0.77 µM | IC50 (HepG2): 0.68 µM | IC50 at 72 h [2]: 1.37 µM | inhibition [4]: 90.1%

COc1ccc2[nH]c3c(c2c1)CCN1C(=O)c2cc(F)cc(F)c2N(c2cccc(F)c2)C31 (stereo unspecified)
inhibition [3]: 20.1% | IC50 (SK-HEP1): 0.27 µM | IC50 (Huh-7): 0.23 µM | IC50 (HCCLM9): 39 µM | inhibition [1]: 65.2% | IC50 (SMMC-7721): 0.35 µM | IC50 (HepG2): 0.27 µM | IC50 at 72 h [2]: 1.56 µM | inhibition [4]: 48.4%

COc1ccc2[nH]c3c(c2c1)CCN1C(=O)c2cc(F)ccc2N(c2cc(F)cc(F)c2)C31 (stereo unspecified)
IC50 (SK-HEP1): 3.97 µM | IC50 (Huh-7): 3.61 µM | IC50 (HCCLM9): 6.34 µM | IC50 (SMMC-7721): 2.97 µM | IC50 (HepG2): 2.91 µM | IC50 at 72 h [2]: > 6 µM

COc1ccc2[nH]c3c(c2c1)CCN1C(=O)c2cc(F)ccc2N(c2cc(F)ccc2F)C31 (stereo unspecified)
IC50 (SK-HEP1): 5.78 µM | IC50 (Huh-7): 7.75 µM | IC50 (HCCLM9): 3.78 µM | IC50 (SMMC-7721): 3.98 µM | IC50 (HepG2): 2.8 µM | IC50 at 72 h [2]: 4.67 µM

COc1ccc2[nH]c3c(c2c1)CCN1C(=O)c2cc(F)ccc2N(c2ccc(F)c(F)c2)C31 (stereo unspecified)
IC50 (SK-HEP1): 1.35 µM | IC50 (Huh-7): 1.19 µM | IC50 (HCCLM9): 2.67 µM | IC50 (SMMC-7721): 1.48 µM | IC50 (HepG2): 1.34 µM | IC50 at 72 h [2]: 3.46 µM

COc1ccc2[nH]c3c(c2c1)CCN1C(=O)c2cc(F)ccc2N(c2cc(F)cc(Cl)c2)C31 (stereo unspecified)
IC50 (SK-HEP1): 5.01 µM | IC50 (Huh-7): 4.87 µM | IC50 (HCCLM9): 7.05 µM | IC50 (SMMC-7721): 5.11 µM | IC50 (HepG2): 3.92 µM | IC50 at 72 h [2]: 5.44 µM

COc1ccc2[nH]c3c(c2c1)CCN1C(=O)c2cc(F)ccc2N(c2cc(F)ccc2C)C31 (stereo unspecified)
IC50 (SK-HEP1): 8.91 µM | IC50 (Huh-7): 11.2 µM | IC50 (HCCLM9): > 18 µM | IC50 (SMMC-7721): 9.18 µM | IC50 (HepG2): 7.19 µM | IC50 at 72 h [2]: > 6 µM

COc1cc(F)cc(N2c3ccc(F)cc3C(=O)N3CCc4c([nH]c5ccc(OC)cc45)C32)c1 (stereo unspecified)
IC50 (SK-HEP1): 3.15 µM | IC50 (Huh-7): 3.66 µM | IC50 (HCCLM9): 4.21 µM | IC50 (SMMC-7721): 3.98 µM | IC50 (HepG2): 2.91 µM | IC50 at 72 h [2]: 5.78 µM

COc1ccc2[nH]c3c(c2c1)CCN1C(=O)c2cc(F)ccc2N(c2cc(F)cc(Br)c2)C31 (stereo unspecified)
IC50 (SK-HEP1): 4.21 µM | IC50 (HCCLM9): 7.75 µM | IC50 (SMMC-7721): 5.77 µM | IC50 (HepG2): 4.36 µM | IC50 at 72 h [2]: 5.97 µM

COc1ccc2[nH]c3c(c2c1)CCN1C(=O)c2cc(F)ccc2N(c2cc(F)ccc2OC)C31 (stereo unspecified)
IC50 (SK-HEP1): > 18 µM | IC50 (Huh-7): > 18 µM | IC50 (HCCLM9): > 18 µM | IC50 (SMMC-7721): > 18 µM | IC50 (HepG2): > 18 µM | IC50 at 72 h [2]: > 6 µM

O=C1c2cc(F)cc(F)c2N(c2cccc(F)c2)C2c3[nH]c4ccccc4c3CCN12 (stereo unspecified)
inhibition [3]: 27.7% | IC50 (SK-HEP1): 0.27 µM | IC50 (Huh-7): 0.03 µM | IC50 (HCCLM9): 0.28 µM | inhibition [1]: 52.6% | IC50 (SMMC-7721): 0.27 µM | IC50 (HepG2): 0.39 µM | IC50 at 72 h [2]: 0.95 µM | inhibition [4]: 94.4%
